Reference: patent US20180148687A1 (priority 2015, published 2018)
Like-named read-outs stand apart in the source and are kept apart here.

Assays:
P2X3 receptors = biological target: T1, P2X3 receptors (Homo sapiens, UniProt P56373); type: cell-based
T1 sequence (P56373 1-397): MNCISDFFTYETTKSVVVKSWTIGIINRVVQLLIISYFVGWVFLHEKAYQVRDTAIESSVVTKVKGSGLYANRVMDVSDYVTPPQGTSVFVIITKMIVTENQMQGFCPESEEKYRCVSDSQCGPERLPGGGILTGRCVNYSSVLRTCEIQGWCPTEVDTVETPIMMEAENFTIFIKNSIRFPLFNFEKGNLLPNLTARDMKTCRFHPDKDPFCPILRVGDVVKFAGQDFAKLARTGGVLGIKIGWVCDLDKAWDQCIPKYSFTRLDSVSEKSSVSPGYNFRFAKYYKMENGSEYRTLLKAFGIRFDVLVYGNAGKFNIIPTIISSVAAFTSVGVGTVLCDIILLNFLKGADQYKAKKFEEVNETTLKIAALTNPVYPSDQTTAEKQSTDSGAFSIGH
Description: (§1) Differentiated cells at 1-2 weeks were loaded with Fluo-4-AM fluorescence dye (Invitrogen, Calif.) for 1 hr incubation followed by 45 mins period for de-esterification. Cells were washed and incubated in Hanks' balanced salt solution (HBSS), supplemented with 25 mM HEPES buffer, 5.5 mM Glucose. Calcium flux was monitored using an Olympus IX81 inverted epi-fluorescence microscope (Olympus, Markham, ON) coupled to a xenon arc lamp (EXFO, Quebec, QC). Indicated agonists, α,β-methylene-ATP or capsaicin, were diluted in the aforementioned solution and added to the well to give the final stimulation concentration (30 μM α,β-methylene-ATP, 1 μM capsaicin) using a dropping pipette and aspirator system. Fluorescence images were collected using an EMCCD camera (Photometrics, Tucson, Ark.) every 2 s through a GFP filter cube (Semrock, Rochester, N.Y.). In a subset of wells, ionomycin was added as a second stimulation for the dye loading control. […] Off-line analysis of the intensity pattern of Fluo-4 signal was performed in ImageJ (NIH, Bethesda, Md.).

TRPV1 vanilloid receptor = biological target: T2, TRPV1 vanilloid receptor (Homo sapiens, UniProt Q8NER1); assay: Calcium imaging (Fluo-4) of BD-iNPC derived sensory neurons, capsaicin response; type: cell-based; conditions: 1 μM
T2 construct: endogenous in cells; host or cells: nociceptive sensory neurons differentiated from human blood derived iNPCs
Description: as §1

[1] = tested on: voltage-activated sodium channels; type: cell-based, human
[2] = tested on: BD-iNPC derived sensory neurons; assay: In vitro chemotherapy induced neuropathy model: neurite length and cell count; type: cell-based, human; conditions: 48 hours after treatment
Text: This miniaturized and automated approach illustrates the potential utility of these converted cells as an in vitro model of human axonopathy for drug-discovery and form the basis to expand to other PNS and CNS disorders.

T2 sequence (Q8NER1 whole entry): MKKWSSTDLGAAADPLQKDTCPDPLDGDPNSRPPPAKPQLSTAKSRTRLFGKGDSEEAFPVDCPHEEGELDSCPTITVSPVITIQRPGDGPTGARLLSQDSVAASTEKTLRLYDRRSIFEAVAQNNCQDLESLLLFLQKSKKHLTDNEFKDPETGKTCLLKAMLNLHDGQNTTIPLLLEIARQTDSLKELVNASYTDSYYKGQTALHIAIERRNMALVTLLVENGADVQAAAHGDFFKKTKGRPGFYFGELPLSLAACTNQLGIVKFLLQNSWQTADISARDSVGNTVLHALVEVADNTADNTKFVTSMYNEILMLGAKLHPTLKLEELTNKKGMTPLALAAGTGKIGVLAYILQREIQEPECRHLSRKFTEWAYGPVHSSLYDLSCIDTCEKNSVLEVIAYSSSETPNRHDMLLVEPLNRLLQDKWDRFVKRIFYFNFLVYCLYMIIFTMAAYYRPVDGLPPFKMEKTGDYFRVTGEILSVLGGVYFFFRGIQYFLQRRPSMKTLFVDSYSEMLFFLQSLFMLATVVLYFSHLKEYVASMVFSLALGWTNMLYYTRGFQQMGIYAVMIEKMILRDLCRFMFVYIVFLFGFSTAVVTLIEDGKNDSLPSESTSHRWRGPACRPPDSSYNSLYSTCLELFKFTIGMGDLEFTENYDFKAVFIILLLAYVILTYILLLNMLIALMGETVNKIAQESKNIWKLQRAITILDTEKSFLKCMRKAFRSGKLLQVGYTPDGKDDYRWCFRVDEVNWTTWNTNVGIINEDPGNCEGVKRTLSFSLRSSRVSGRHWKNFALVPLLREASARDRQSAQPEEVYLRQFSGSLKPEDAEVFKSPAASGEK

## Nc1ncnc2c1ncn2[C@@H]1O[C@H](COP(=O)(O)CP(=O)(O)OP(=O)(O)O)[C@@H](O)[C@H]1O [α,β-methylene-ATP]
P2X3 receptors; 30 μM
  calcium transients in BD-iNPC derived neurons: could evoke calcium transients
P2X3 receptors; 30 μM, continued culture to day 14
  calcium flux response: robust response
P2X3 receptors; 30 μM, neurons at day 7 post-induction
  calcium flux response: minimal response

## O=C(O)c1cc(C(=O)O)c(C(=O)N(Cc2cccc(Oc3ccccc3)c2)[C@H]2CCCc3ccccc32)cc1C(=O)O [A-317491]
P2X3 receptors; antagonist added 15 min before calcium imaging, 30 μM α,β-methylene-ATP stimulation
  calcium-response to α,β-methylene ATP: significantly decreased

## COc1cc(CNC(=O)CCCC/C=C/C(C)C)ccc1O [capsaicin]
TRPV1 vanilloid receptor
  calcium transients in BD-iNPC derived neurons: could evoke calcium transients

## NC1=N[C@H](O)[C@H]2[C@H]3O[C@]4(O)O[C@@H]([C@@H](O)[C@@]2(N1)[C@@H]4O)[C@]3(O)CO [tetrodotoxin]
[1]
  rapidly activating and inactivating inward currents: blocked

## CC(=O)O[C@H]1C(=O)[C@@]2(C)[C@H]([C@H](OC(=O)c3ccccc3)[C@]3(O)C[C@H](OC(=O)[C@H](O)[C@@H](NC(=O)c4ccccc4)c4ccccc4)C(C)=C1C3(C)C)[C@]1(OC(C)=O)CO[C@@H]1C[C@@H]2O [Taxol]
[2]
  neurite length of sensory neurons: dose-dependent reduction in length
  viability (cell count) of sensory neurons: without concomitant loss of viability
